Data reported in publication PMC3038857, “Using Nuclear Receptor Activity to Stratify Hepatocarcinogens” (PLoS ONE, 2011).
Read-outs that look alike come from different tables or passages of the source.

How the values were obtained:
Rat Liver [1] = conditions: ref ToxRefDB, cited from earlier work
PXR (NR1I2) [2] = target: T1, PXR (NR1I2) (Homo sapiens, UniProt O75469); test: ATG_PXR_TRANS: Factorial reporter gene assay (HepG2); type: cell-based; design: endogenous in cells; host or cells: HepG2; conditions: HepG2
T1 sequence (O75469 1-434): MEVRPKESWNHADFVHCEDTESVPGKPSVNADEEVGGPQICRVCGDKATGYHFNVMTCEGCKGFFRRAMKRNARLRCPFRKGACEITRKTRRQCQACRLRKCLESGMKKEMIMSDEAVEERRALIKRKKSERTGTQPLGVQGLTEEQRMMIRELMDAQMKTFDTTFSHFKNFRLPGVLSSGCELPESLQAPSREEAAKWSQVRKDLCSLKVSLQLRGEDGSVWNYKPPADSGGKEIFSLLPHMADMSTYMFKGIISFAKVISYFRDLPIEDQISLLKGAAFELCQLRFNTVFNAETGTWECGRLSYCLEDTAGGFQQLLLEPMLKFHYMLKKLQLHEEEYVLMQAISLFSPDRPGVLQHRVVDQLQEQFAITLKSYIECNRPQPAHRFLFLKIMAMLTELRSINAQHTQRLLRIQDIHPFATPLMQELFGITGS
In short: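 Seven concentrations per chemical, three-fold dilutions down from the MTC, were tested in HepG2 hepatoma cells. Those cells carried a multiple reporter transcription unit library, read either as cis transcription-factor-site reporters or as a trans mammalian one-hybrid panel for nuclear receptors.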

Rat Liver [3] = conditions: ref ToxRefDB, cited from earlier work; remark: listed apart in the source
PXR (NR1I2) [4] = target: T1, PXR (NR1I2); test: ATG_PXRE_CIS: Factorial reporter gene assay (HepG2); type: cell-based; design: endogenous in cells; host or cells: HepG2
In short: (§1)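 Transfected HepG2 line; multiplexed reporter read-out. PXRE = cis library (48 TF sites); ERRg/FXR/PPARg = trans one-hybrid library (25 units). Dose series of 7, MTC downward by 3x.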

CYP2B6 = test: CLZD_CYP2B6: Change in expression of CYP2B6 (primary human hepatocytes); type: cell-based; conditions: 24 hr
In short: (§2)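 Primary human hepatocyte cultures were exposed to test chemicals at 5 concentrations (0.004-40 µM) for 6, 24 or 48 hr.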

CYP3A4 = test: CLZD_CYP3A4: Change in expression of CYP3A4 (primary human hepatocytes); type: cell-based; conditions: 24 hr
In short: as §2

Rat Liver [5] = conditions: ref ToxRefDB, cited from earlier work; remark: listed apart in the source
Mouse Liver [6] = conditions: ref ToxRefDB, cited from earlier work
[7] = target: T2, AHR (aryl hydrocarbon receptor) (Homo sapiens, UniProt P35869); test: ATG_Ahr_CIS: Factorial reporter gene assay (multiplexed transcription reporter, HepG2); type: cell-based; conditions: HepG2
T2 construct: endogenous in cells; host or cells: HepG2
T2 sequence (P35869 11-848): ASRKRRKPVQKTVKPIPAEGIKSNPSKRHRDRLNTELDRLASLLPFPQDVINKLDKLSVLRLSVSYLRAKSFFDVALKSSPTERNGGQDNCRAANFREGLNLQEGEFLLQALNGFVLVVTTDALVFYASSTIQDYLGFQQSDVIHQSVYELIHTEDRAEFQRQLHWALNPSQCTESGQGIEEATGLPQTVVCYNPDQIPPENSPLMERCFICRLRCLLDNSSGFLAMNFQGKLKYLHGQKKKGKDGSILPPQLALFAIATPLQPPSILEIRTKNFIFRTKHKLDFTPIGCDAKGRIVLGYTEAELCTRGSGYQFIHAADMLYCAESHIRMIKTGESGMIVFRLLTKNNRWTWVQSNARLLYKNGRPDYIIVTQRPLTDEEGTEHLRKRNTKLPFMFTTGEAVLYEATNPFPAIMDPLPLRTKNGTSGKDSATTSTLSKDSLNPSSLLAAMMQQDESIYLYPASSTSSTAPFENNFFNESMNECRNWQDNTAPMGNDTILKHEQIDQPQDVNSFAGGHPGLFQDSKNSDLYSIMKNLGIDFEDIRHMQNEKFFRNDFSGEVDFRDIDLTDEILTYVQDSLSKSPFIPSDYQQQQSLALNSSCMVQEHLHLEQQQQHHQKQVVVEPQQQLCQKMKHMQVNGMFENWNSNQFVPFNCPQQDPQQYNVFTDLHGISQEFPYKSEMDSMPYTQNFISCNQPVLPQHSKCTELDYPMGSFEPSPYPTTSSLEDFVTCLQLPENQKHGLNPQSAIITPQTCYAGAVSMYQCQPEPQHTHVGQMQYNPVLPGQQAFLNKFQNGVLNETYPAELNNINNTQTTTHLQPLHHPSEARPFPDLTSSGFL
Method: (§3) A multiple reporter transcription unit (MRTU) library consisting of 48 transcription factor binding sites was transfected into the HepG2 human liver hepatoma cell line. In addition to the cis-acting reporter genes (CIS), a modification of the approach was used to generate a trans-system (TRANS) with a mammalian one-hybrid assay consisting of an additional 25 MRTU library reporting the activity of nuclear receptor super-family members. […] These assays were performed by Attagene Inc. (Morrisville NC) under contract to EPA.
(§4) In addition to the cis-acting reporter genes (CIS), a modification of the approach was used to generate a trans-system (TRANS) with a mammalian one-hybrid assay consisting of an additional 25 MRTU library reporting the activity of nuclear receptor super-family members. […] Chemicals were then tested in the CIS and TRANS assays at seven concentrations starting at the MTC and followed by three-fold serial dilutions. These assays were performed by Attagene Inc. (Morrisville NC) under contract to EPA. Detailed description of the methods, data and analysis methods for this dataset will be presented in a separate publication.

Mouse Liver [8] = conditions: chronic study, mouse liver; ref ToxRefDB; cited from earlier work
Mouse Liver [9] = conditions: chronic study, mouse liver; ref ToxRefDB; cited from earlier work; remark: listed apart in the source
[10] = target: T3, ESR1 (estrogen receptor 1) (Homo sapiens, UniProt P03372); test: ATG_ERa_TRANS: Factorial reporter gene assay (HepG2); type: cell-based
T3 construct: expressed in transfected cells; host or cells: HepG2
Method: as §3, §4

PXR (NR1I2) [11] = target: T1, PXR (NR1I2); test: NVS_NR_hPXR: Human PXR Fluormone PXR (SXR) green (cell-free HTS); type: binding
Source text: These are a collection of biochemical assays measuring binding constants and enzyme inhibition values. Chemicals were initially screened at a single concentration in duplicate wells at a concentration of 10 [drawing 63] M for cytochrome P-450 assays and 25 [drawing 64] M for all others. […] These assays were run by Caliper Life Sciences (Hanover, MD) under contract to EPA. Short assay descriptions are available at: http://www.caliperls.com/products/contract-research/in-vitro/.
Cell-free HTS Assays: A collection of biochemical assays measuring binding constants and enzyme inhibition values. […] These assays were run by Caliper Life Sciences (Hanover, MD) under contract to EPA. Short assay descriptions are available at http://www.caliperls.com/products/contract-research/in-vitro/. Values for all endpoints were imported into GeneData Screener (Basel, Switzerland) and normalised to solvent controls from the same plate as the tested compounds and expressed as percent of neutral control. Concentration-response curves were fit in GeneData Screener (Basel, Switzerland) Condeseo module using the Hill equation and AC50 values were determined. […] Detailed description of the methods, data and analysis methods for this dataset are described in a separate publication.

PXR Human (NR1I2) = target: T4, PXR Human (NR1I2) (Homo sapiens, UniProt O75469); test: NCGC_PXR_Agonist_human: GAL4 BLAM Reporter gene assay: PXR Human; type: cell-based; conditions: agonist mode
T4 sequence (O75469 146-434 limits assumed): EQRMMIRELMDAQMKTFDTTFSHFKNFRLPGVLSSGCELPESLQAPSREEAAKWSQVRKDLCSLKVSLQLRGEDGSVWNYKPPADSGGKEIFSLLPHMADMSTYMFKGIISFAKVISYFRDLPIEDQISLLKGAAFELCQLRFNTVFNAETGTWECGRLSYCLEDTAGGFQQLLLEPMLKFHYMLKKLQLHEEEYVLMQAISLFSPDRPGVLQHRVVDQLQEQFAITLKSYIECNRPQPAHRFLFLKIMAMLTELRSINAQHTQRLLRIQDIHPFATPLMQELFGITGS
Method: These assays measure binding constants and enzyme inhibition values for nuclear receptors. The targets include [drawing 67] , [drawing 68] , [drawing 69] , [drawing 70] , [drawing 71] , [drawing 72] , [drawing 73] , [drawing 74] , [drawing 75] and [drawing 76] . Each of the nuclear receptor targets was measured in agonist mode. Assays were run at the NIH Chemical Genomics Center (Rockville, MD).
Cell-based HTS Assays: These assays measuring binding constants and enzyme inhibition values for nuclear receptors. The targets include AR, ER, FXR, LXR, PPARα, PPARδ, PPARγ, RXRα, RXRβ and PXR. Each of the nuclear receptor targets was measured in both agonist and antagonist mode, but the antagonist data is still undergoing analysis due to possible interference between cytotoxicity and assay activity, so antagonist mode data were not used in the present analysis. Assays were run at the NIH Chemical Genomics Center (Rockville, MD) as part of the Tox21 collaboration. […] The R^2 was required to be ≥0.5. Values where only the highest concentration exceeded 50% activity were excluded to eliminate weak or false positives. Detailed description of the methods, data and analysis methods for this dataset will be presented in a separate publication.

[12] = target: T5, PPARG (peroxisome proliferator-activated receptor gamma) (Homo sapiens, UniProt P37231); test: ATG_PPARg_TRANS: Factorial reporter gene assay (HepG2); type: cell-based; conditions: HepG2
T5 construct: expressed in transfected cells; host or cells: HepG2
T5 sequence (P37231 1-505): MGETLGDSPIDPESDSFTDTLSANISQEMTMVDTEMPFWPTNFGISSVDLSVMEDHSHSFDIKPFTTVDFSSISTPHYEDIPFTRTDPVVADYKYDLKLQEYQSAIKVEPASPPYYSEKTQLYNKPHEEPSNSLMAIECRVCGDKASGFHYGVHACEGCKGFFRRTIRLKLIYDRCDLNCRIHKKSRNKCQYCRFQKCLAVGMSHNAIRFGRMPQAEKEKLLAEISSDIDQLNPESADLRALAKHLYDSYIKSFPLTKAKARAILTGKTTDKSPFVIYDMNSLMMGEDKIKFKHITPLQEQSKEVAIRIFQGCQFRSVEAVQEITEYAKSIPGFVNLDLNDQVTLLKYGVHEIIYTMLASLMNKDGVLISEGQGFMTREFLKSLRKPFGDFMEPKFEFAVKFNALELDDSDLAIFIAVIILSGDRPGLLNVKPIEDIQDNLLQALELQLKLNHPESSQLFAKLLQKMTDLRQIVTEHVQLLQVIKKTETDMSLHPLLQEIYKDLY
In short: as §1

CYP1A2 = test: CLZD_CYP1A2: Change in expression of CYP1A2 (primary human hepatocytes); type: cell-based; conditions: 24 hr
In short: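 Chemicals are tested in human hepatocyte primary cultures over 0.004-40 µM (5 concentrations) for 6, 24 or 48 hr, and concentration- and time-dependent transcript changes are read by quantitative nuclease protection assay.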

T3 sequence (P03372 whole entry): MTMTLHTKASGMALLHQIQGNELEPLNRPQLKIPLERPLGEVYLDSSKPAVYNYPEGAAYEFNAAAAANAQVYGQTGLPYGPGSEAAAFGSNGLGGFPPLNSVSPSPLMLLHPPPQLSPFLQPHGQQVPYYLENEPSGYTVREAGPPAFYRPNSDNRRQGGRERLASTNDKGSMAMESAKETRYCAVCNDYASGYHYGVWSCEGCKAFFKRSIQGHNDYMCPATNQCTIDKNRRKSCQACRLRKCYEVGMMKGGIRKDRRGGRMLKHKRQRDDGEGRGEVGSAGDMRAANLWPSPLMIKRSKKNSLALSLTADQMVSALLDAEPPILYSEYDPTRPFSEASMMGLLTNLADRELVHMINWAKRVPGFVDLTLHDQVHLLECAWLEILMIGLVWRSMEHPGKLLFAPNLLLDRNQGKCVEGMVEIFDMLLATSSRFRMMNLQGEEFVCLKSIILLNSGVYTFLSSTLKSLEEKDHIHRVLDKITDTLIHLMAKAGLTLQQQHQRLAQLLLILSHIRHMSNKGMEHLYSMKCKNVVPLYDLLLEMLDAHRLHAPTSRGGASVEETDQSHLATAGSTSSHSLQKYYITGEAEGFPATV

SMILES	CHR_Rat_Liver_2_PreneoplasticLesion (Rat Liver [1]; chronic rat study, liver)	ATG_PXR_TRANS (PXR (NR1I2) [2])	CHR_Rat_Liver_3_NeoplasticLesion (Rat Liver [3]; chronic rat study, liver)	ATG_PXRE_CIS (PXR (NR1I2) [4]; HepG2)	CLZD_CYP2B6_24 (CYP2B6)	CLZD_CYP3A4_24 (CYP3A4)	CHR_Rat_Liver_1_AnyLesion (Rat Liver [5]; chronic rat study, liver)	CHR_Mouse_Liver_1_AnyLesion (Mouse Liver [6]; chronic mouse study, liver)	ATG_Ahr_CIS [7]	other results
COCC(=O)N(c1c(C)cccc1C)C(C)C(=O)OC (stereo not shown) [row 196]	0	4.854	0	4.796	5.11	4.985	6	6	4.149	
Cc1c(F)c(F)c(COC(=O)C2C(/C=C(\Cl)C(F)(F)F)C2(C)C)c(F)c1F (stereo not shown) [r294]										CHR_Mouse_Liver_3_NeoplasticLesion (Mouse Liver [8]): 6; CHR_Rat_Liver_2_PreneoplasticLesion (Rat Liver [1]; chronic study, rat liver): 0; CHR_Rat_Liver_3_NeoplasticLesion (Rat Liver [3]; chronic study, rat liver): 0; ATG_PXRE_CIS (PXR (NR1I2) [4]; HepG2 reporter): 4.886; CHR_Rat_Liver_1_AnyLesion (Rat Liver [5]; chronic study, rat liver): 0; CHR_Mouse_Liver_1_AnyLesion (Mouse Liver [6]; chronic study, mouse liver): 6; CHR_Mouse_Liver_2_PreneoplasticLesion (Mouse Liver [9]): 6; ATG_ERa_TRANS ([10]; HepG2 reporter): 4.31
CCCN(CCC)c1c([N+](=O)[O-])cc(S(N)(=O)=O)cc1[N+](=O)[O-] [row 224]	0	5.538	0	5.921	4.989	4.897	0			NVS_NR_hPXR (PXR (NR1I2) [11]): 5.395; NCGC_PXR_Agonist_human (PXR Human (NR1I2)): 5.133
CCC(=O)C1C(=O)CC(C(=O)[O-])CC1=O.CCC(=O)C1C(=O)CC(C(=O)[O-])CC1=O.[Ca+2] (stereo not shown) [r254]									4.215	CHR_Rat_Liver_2_PreneoplasticLesion (Rat Liver [1]; rat, chronic study): 0; ATG_PPARg_TRANS [12]: 4.409; CHR_Rat_Liver_3_NeoplasticLesion (Rat Liver [3]; rat, chronic study): 0; CHR_Rat_Liver_1_AnyLesion (Rat Liver [5]; rat, chronic study): 0
CCCCC(C#N)(Cn1cncn1)c1ccc(Cl)cc1 (stereo not shown) [row 217]	0		0	4.886	4.948	5.217	6	6		CLZD_CYP1A2_24 (CYP1A2): 5.223; ATG_ERa_TRANS ([10]; HepG2): 4.398
